Molecules are shown by their SMILES.

The text below walks through data of patent publication US8846701B2, “Pyrazolo-quinazolines” (Nerviano Medical Sciences S.R.L., priority 2008, dated 2014).

This experiment has as its system A2780 human ovarian cancer cells. Put plainly: In vitro cell proliferation assay (CellTiter-Glo). To be noted: 72 hours treatment. It is filed as cell-based. Here is the method:
A2780 human ovarian and MCF7 human breast cancer cells (1250 cells/well) were seeded in white 384 well-plates in complete medium (RPMI 1640 or EMEM plus 10% Fetal bovine serum) and treated with compounds dissolved in 0.1% DMSO, 24 h after seeding. The cells were incubated at 37° C. and 5% CO2 and after 72 hours the plates were processed using CellTiter-Glo assay (Promega) following the manufacturer's instruction. CellTiter-Glo is a homogenous method based on the quantification of the ATP present, an indicator of metabolitically active cells. ATP is quantified using a system based on luciferase and D-luciferin resulting into light generation. The luminescent signal is proportional to the number of cells present in culture.
Briefly 25 μl/well reagent solution were added to each well and after 5 minutes shacking microplates were red by Envision (PerkinElmer) luminometer. The luminescent signal was proportional to the number of cells present in culture.
Inhibitory activity was evaluated comparing treated versus control data using Assay Explorer (MDL) program. IC50 was calculated using sigmoidal interpolation curve.
For orientation: ATP-based viability assays read luminescence as a measure of living cells.
Regarding `CCc1cccc(CC)c1NC(=O)c1nn(C)c2c1CCc1cnc(Nc3ccc(C(=O)NC4CCN(C)CC4)cc3OC)nc1-2` [Compound 2, N-(2,6-diethylphenyl)-8-({2-methoxy-4-[(1-methylpiperidin-4-yl)carbamoyl]phenyl}amino)-1-methyl-4,5-dihydro-1H-pyrazolo[4,3-h]quinazoline-3-carboxamide], half-maximal inhibition (IC50) required 150 nM. To `CCc1cccc(CC)c1NC(=O)c1nn(C)c2c1CCc1cnc(Nc3ccc(N4CCN(C)CC4)cc3OC(F)(F)F)nc1-2` [Compound 3, N-(2,6-diethylphenyl)-1-methyl-8-{[4-(4-methylpiperazin-1-yl)-2-(trifluoromethoxy)phenyl]amino}-4,5-dihydro-1H-pyrazolo[4,3-h]quinazoline-3-carboxamide] belongs 350 nM; to `CCc1cccc(CC)c1NC(=O)c1nn(C)c2c1CCc1cnc(Nc3ccc(N4CCN(C)CC4)cc3OC)nc1-2` [Compound 5, N-(2,6-diethylphenyl)-8-{[2-methoxy-4-(4-methylpiperazin-1-yl)phenyl]amino}-1-methyl-4,5-dihydro-1H-pyrazolo[4,3-h]quinazoline-3-carboxamide], 100 nM.

As for `CCc1cccc(CC)c1NC(=O)c1nn(C)c2c1CCc1cnc(Nc3ccc(N(C)CCCN(C)C)cc3OC)nc1-2` [Compound 7, N-(2,6-diethylphenyl)-8-[(4-{[3-(dimethylamino)propyl](methyl)amino}-2-methoxyphenyl)amino]-1-methyl-4,5-dihydro-1H-pyrazolo[4,3-h]quinazoline-3-carboxamide], inhibition was half-maximal at 140 nM (IC50). The figure for `CCc1cccc(CC)c1NC(=O)c1nn(C)c2c1CCc1cnc(Nc3ccc(C(N)=O)cc3OC)nc1-2` [Compound 13, 8-[(4-carbamoyl-2-methoxyphenyl)amino]-N-(2,6-diethylphenyl)-1-methyl-4,5-dihydro-1H-pyrazolo[4,3-h]quinazoline-3-carboxamide] is 100 nM. For the compound `CCc1cccc(CC)c1NC(=O)c1nn(C)c2c1CCc1cnc(NC3CCN(S(=O)(=O)CCNC)CC3)nc1-2` [Compound 56, N-(2,6-diethylphenyl)-1-methyl-8-[(1-{[2-(methylamino)ethyl]sulfonyl}piperidin-4-yl)amino]-4,5-dihydro-1H-pyrazolo[4,3-h]quinazoline-3-carboxamide], it took 150 nM to reach half-maximal inhibition (IC50). Compared with the last compound, the IC50 is about 1.5-fold higher. To `CCc1cccc(CC)c1NC(=O)c1nn(C)c2c1CCc1cnc(NC3CCN(S(C)(=O)=O)CC3)nc1-2` [Compound 57, N-(2,6-diethylphenyl)-1-methyl-8-{[1-(methylsulfonyl)piperidin-4-yl]amino}-4,5-dihydro-1H-pyrazolo[4,3-h]quinazoline-3-carboxamide] belongs 130 nM.

Compound `CCc1cccc(CC)c1NC(=O)c1nn(C)c2c1CCc1cnc(NC3CCN(C(=O)CCNC)CC3)nc1-2` [Compound 66, N-(2,6-diethylphenyl)-1-methyl-8-{[1-(N-methyl-beta-alanyl)piperidin-4-yl]amino}-4,5-dihydro-1H-pyrazolo[4,3-h]quinazoline-3-carboxamide] displayed an IC50 of 650 nM.

The compound `Cn1nc(C(=O)N(O)C2CCCCC2)c2c1-c1nc(NC3CCCC3)ncc1CC2` [Prior art compound, N-cyclohexyl-8-(cyclopentylamino)-N-hydroxy-1-methyl-4,5-dihydro-1H-pyrazolo[4,3-h]quinazoline-3-carboxamide, reference compound] had a half-inhibitory concentration (IC50) of 3400 nM.

In general, IC50 refers to the concentration that gives 50% inhibition. A low value points to higher potency.
